The record followed here is patent publication US9684238B2, “Fluorene-type compound, photopolymerization initiator comprising said fluorene-type compound, and photosensitive composition containing said photopolymerization initiator” (TOKYO OHKA KOGYO CO., LTD., priority 2012, dated 2017).

Structures are written as SMILES.

Data set [1] can be described thus: Absorption coefficient (absorbance of 0.001% solution in tetrahydrofuran). The class given is physicochemical. Conditions: for Λ max (absorption maximum wavelength): 0.001% (wt/vol) in tetrahydrofuran, from 280 nm to 400 nm; for Absorption coefficient at 365 nm / Absorption coefficient at Λ max: 0.001% (wt/vol) solution in tetrahydrofuran. The procedure:
A 0.001% (wt/vol) solution of each of the compounds 1, 2, 4, 6, 8, 9, 11, 12, 13, 15, 16, D-1, D-3, D-4, D-7, D-8, D-9, D-12, D-14, D-15, D-20, C-1, and C-2 in tetrahydrofuran was prepared, and its absorbance was measured with a spectrophotometer (manufactured by Hitachi High-Technologies Corporation, trade name: “U-3900H”). An absorption maximum wavelength (Amax) at a wavelength of from 280 nm to 400 nm was read from an absorption spectrum obtained with the spectrophotometer.

Data set [2] can be described thus: Decomposition point by thermal analysis (TG-DTA). Type of data set: physicochemical. Conditions: 5.0 mg. The procedure:
The compounds 1, 2, 4, 6, 8, 9, 11, 12, 13, 15, 16, D-1, D-3, D-4, D-7, D-8, D-9, D-12, D-14, D-15, D-20, C-1, and C-2 were each subjected to measurement with a thermal analysis apparatus (TG-DTA) (manufactured by Rigaku Corporation, trade name: “Thermo Plus EVO TG 8120”) by using 5.0 mg thereof.

A short description of data set [3]: Solubility in PGME, PGMEA and ethyl lactate. The class given is physicochemical. Conditions: for Solubility Ethyl lactate: in 100 parts by weight of ethyl lactate; for Solubility Ethyl lactate / Solubility PGMEA / Solubility PGME: room temperature; for Solubility PGMEA: in 100 parts by weight of propylene glycol monomethyl ether acetate; for Solubility PGME: in 100 parts by weight of propylene glycol monomethyl ether; for solubility (in words): photopolymerization initiator containing the compound. The procedure: An evaluation for solubility was performed in accordance with the following evaluation criteria based on the dissolution amount.
A: 10 Parts by weight or more of the photopolymerization initiator is dissolved.
B: An amount in the range of from 5 parts by weight or more to less than 10 parts by weight of the photopolymerization initiator is dissolved.
C: An amount in the range of from 2 parts by weight or more to less than 5 parts by weight of the photopolymerization initiator is dissolved.
D: Less than 2 parts by weight of the photopolymerization initiator is dissolved.

A short description of data set [4]: Evaluation 1: 20-μm pattern line width of transparent photosensitive composition. Conditions: for 20-μm pattern line width: transparent composition, initiator 0.4 mmol; for sensitivity to the active energy ray (in words): photopolymerization initiator containing the compound. Here is the method: After that, the mixture was filtered with a membrane filter having an aperture of 5 μm to provide a photosensitive composition.
It should be noted that the fluorene-based compound as a photopolymerization initiator was used in such an amount that its molar quantity was kept constant in the respective examples and comparative examples.
The glass substrate after the application was dried with a fan dryer at 90° C. for 10 minutes. Thus, a coating film (photosensitive layer) was formed. Next, the film was exposed to light having an exposure energy quantity of 5 mJ/cm^2, 10 mJ/cm^2, 20 mJ/cm^2, 40 mJ/cm^2, 60 mJ/cm^2, or 80 mJ/cm^2 by using a high-pressure mercury lamp (manufactured by Karl Suss, trade name: “MASK ALIGNER”) through a negative mask (mask width: 20 μm). Next, the resultant was immersed in a 0.1 wt % aqueous solution of tetramethylammonium hydroxide (TMAH) and then rinsed with pure water. The remaining cured film was subjected to the following evaluation.
(§1) A larger value for the line width means higher sensitivity.

Data set [5] in a line: Average transmittance of composition. The class given is physicochemical. Conditions: photosensitive composition, quartz cell, optical path length 1 cm. The procedure:
The average transmittance (%) of each of the photosensitive resin compositions obtained in Examples 1 to 9, Examples 2-1 to 2-10, and Comparative Examples 1 and 2 in the range of from 400 nm to 700 nm was measured with a spectrophotometer (manufactured by Hitachi High-Technologies Corporation, trade name: “U-3900H”, quartz cell, optical path length; 1 cm).

Data set [6] in a line: Transmittance of transparent cured film. Conditions: for Average transmittance (700 nm to 400 nm) Transparent cured film / Transmittance (400 nm) Transparent cured film: cured at exposure energy quantity 80 mJ/cm^2; for transparency of photosensitive composition and formed product (in words): photopolymerization initiator containing the compound. The class given is physicochemical. Here is the method: Transparent cured films were formed by using the photosensitive compositions obtained in Examples 1 to 9, Examples 2-1 to 2-10, and Comparative Examples 1 and 2 in the same manner as in the evaluation 1 except that the exposure energy quantity was set to 80 mJ/cm^2. The transmittance (%) of each of the resultant transparent cured films at 400 nm and the average transmittance (%) thereof in the range of from 400 to 700 nm were measured with a spectrophotometer (manufactured by Hitachi High-Technologies Corporation, trade name: “U-3900H”, quartz cell, optical path length; 1 cm). A higher transmittance at 400 nm means less coloring with a yellow color. In addition, a higher transmittance of a coating film means a higher transmitting property of a pattern to be formed.

Data set [7] is described as follows: Evaluation 3: 20-μm pattern line width of black photosensitive composition. Conditions: black composition (carbon black, cardo resin), initiator 0.4 mmol.
Description: The mixture was filtered with a membrane filter having an aperture of 5 μm to provide a photosensitive composition.
Photosensitive compositions were each obtained in the same manner as in Example 10 except that the used fluorene-based compound and its usage were changed as shown in Table 5.
Each of the photosensitive compositions obtained in Examples 10 to 15, Examples 2-11 to 2-20, and Comparative Example 3 was applied onto a glass substrate with a spin coater (manufactured by Kyowariken Co., Ltd., trade name: “K-359SD1”) so that its thickness after drying became 1.0 μm. The glass substrate after the application was dried with a fan dryer at 90° C. for 10 minutes. Thus, a coating film (photosensitive layer) was formed. Next, the film was exposed to light having an exposure energy quantity of 10 mJ/cm^2, 20 mJ/cm^2, 40 mJ/cm^2, 60 mJ/cm^2, or 80 mJ/cm^2 by using a high-pressure mercury lamp (manufactured by Karl Suss, trade name: “MASK ALIGNER”) through a negative mask (mask width: 20 μm). Next, the resultant was immersed in a 0.1 wt % aqueous solution of tetra methyl ammonium hydroxide (TMAH) and then rinsed with pure water. The remaining cured film was subjected to the following evaluation. In addition, FIGS. 2, 3, and 6 show microscope photographs of black cured films obtained by using the photosensitive compositions of Examples 10 and 11, and Comparative Example 3, and FIGS. 7 to 11 show microscope photographs of black cured films obtained by using the photosensitive compositions of Examples 2-11, 2-13, 2-14, 2-17, and 2-18.
as §1

The mark [8] stands for this setting: exposure energy quantity 10 mJ/cm^2.
Where [9] appears, read: exposure energy quantity 20 mJ/cm^2.
Setting [10] is: exposure energy quantity 40 mJ/cm^2.
Setting [11] is: exposure energy quantity 60 mJ/cm^2.
The mark [12] stands for this setting: exposure energy quantity 80 mJ/cm^2.

For `CC(=O)ON=C(C)c1ccc2c(c1)Cc1ccccc1-2` [Compound 16], in data set [1], the “Λ max (absorption maximum wavelength)” value was 296.5 nm, the “Absorption coefficient at 365 nm” value amounted to 0.1 mL/mg/cm and the “Absorption coefficient at Λ max” value is 97.7 mL/mg/cm. This compound also registered a Decomposition point in data set [2] of 240.9 °C. Also, in data set [3], the “Solubility Ethyl lactate” value is reported as “C (An amount in the range of from 2 parts by weight or more to less than 5 parts by weight of the photopolymerization initiator is dissolved.)”, the “Solubility PGMEA” value is listed as “B (An amount in the range of from 5 parts by weight or more to less than 10 parts by weight of the photopolymerization initiator is dissolved.)” and the “Solubility PGME” value is “B (An amount in the range of from 5 parts by weight or more to less than 10 parts by weight of the photopolymerization initiator is dissolved.)”.
With `CCCCCCC1(CCCCCC)c2cc(C(=O)c3ccccc3C)ccc2-c2ccc(C(C)=NOC(C)=O)cc21` [Compound 6], the “20-μm pattern line width” value in data set [4] (setting [8]) worked out at 19.7; in data set [4] (setting [9]), 20.2; in data set [4] (setting [10]), 21.1; in data set [4] (setting [11]), 21.7; in data set [4] (setting [12]), 22.7; in data set [7] (10 mJ/cm^2) it was 19.7. Besides, the “20-μm pattern line width” value in data set [7] (20 mJ/cm^2) is listed as 20.2; in data set [7] (40 mJ/cm^2), 21.1; in data set [7] (60 mJ/cm^2), 21.7; in data set [7] (80 mJ/cm^2) it was 22.7. For the same compound, the “Average transmittance (700 nm to 400 nm) Solution” value in data set [5] was 95.4%. Besides, the “Average transmittance (700 nm to 400 nm) Transparent cured film” value in data set [6] came out at 97.3%. Also, the “Transmittance (400 nm) Transparent cured film” value in data set [6] amounted to 99.6%. Also, the “transparency of photosensitive composition and formed product (in words)” value in data set [6] is “additionally excellent transparency”.
Turning to `CCCCCCC1(CCCCCC)c2cc(C(=O)c3ccccc3)ccc2-c2ccc(C(C)=NOC(C)=O)cc21` [Compound 8], in data set [3], the “solubility (in words)” value is reported as “additionally excellent solubility”. Further, the “sensitivity to the active energy ray (in words)” value (“sensitivity” for short) in data set [4] was “additionally high sensitivity to the active energy ray”. Further, the “20-μm pattern line width” value in data set [4] (setting [8]) was 19.6; in data set [4] (setting [9]), 20.1; in data set [4] (setting [10]), 21.7; in data set [4] (setting [11]) it was 22.7; in data set [4] (setting [12]), 23.0; in data set [7] (10 mJ/cm^2), 19.6. Also, the “20-μm pattern line width” value in data set [7] (20 mJ/cm^2) is 20.1; in data set [7] (40 mJ/cm^2), 21.7; in data set [7] (60 mJ/cm^2), 22.7; in data set [7] (80 mJ/cm^2), 23.0. Also, the “Average transmittance (700 nm to 400 nm) Solution” value in data set [5] is reported as 95.4%. Besides, in data set [6], the “Average transmittance (700 nm to 400 nm) Transparent cured film” value was found to be 100.0%. Moreover, in data set [6], the “Transmittance (400 nm) Transparent cured film” value was found to be 100.0%. The “transparency of photosensitive composition and formed product (in words)” value in data set [6] is “additionally excellent transparency”.
`CCCC1(CCC)c2ccccc2-c2ccc(/C(C)=N/OC(C)=O)cc21` [Compound 15]: in data set [1], the “Λ max (absorption maximum wavelength)” value was determined as 315.0 nm, the “Absorption coefficient at 365 nm” value turned out to be 0.0 mL/mg/cm and the “Absorption coefficient at Λ max” value stood at 70.0 mL/mg/cm. In data set [2], this compound had a Decomposition point of 280.0 °C. Further, in data set [3], the “Solubility Ethyl lactate” value is on record as “D (Less than 2 parts by weight of the photopolymerization initiator is dissolved.)”, the “Solubility PGMEA” value is recorded as “C (An amount in the range of from 2 parts by weight or more to less than 5 parts by weight of the photopolymerization initiator is dissolved.)” and the “Solubility PGME” value is listed as “D (Less than 2 parts by weight of the photopolymerization initiator is dissolved.)”.
As to `CCCC1(CCC)c2cc(C(=NOC(C)=O)c3ccc(C(C)(C)C)cc3)ccc2-c2ccc([N+](=O)[O-])cc21` [Compound D-2], the “sensitivity” value in data set [4] is reported as “additionally high sensitivity to the active energy ray”. The “20-μm pattern line width” value in data set [7] (10 mJ/cm^2) came to 19.4; in data set [7] (20 mJ/cm^2), 20.4; in data set [7] (40 mJ/cm^2) it was 21.6; in data set [7] (60 mJ/cm^2), 22.1; in data set [7] (80 mJ/cm^2), 23.0.
As to `CCCCCCC1(CCCCCC)c2cc(C(=NOC(C)=O)c3ccccc3C)ccc2-c2ccc([N+](=O)[O-])cc21` [Compound 2], in data set [4], the “sensitivity” value is on record as “additionally high sensitivity to the active energy ray”. Also, the “20-μm pattern line width” value came out at 21.4 in data set [4] (setting [8]); 22.3 in data set [4] (setting [9]); 22.9 in data set [4] (setting [10]); 23.9 in data set [4] (setting [11]); 24.4 in data set [4] (setting [12]); 20.9 in data set [7] (20 mJ/cm^2). Besides, the “20-μm pattern line width” value in data set [7] (40 mJ/cm^2) worked out at 22.1; in data set [7] (60 mJ/cm^2), 22.8; in data set [7] (80 mJ/cm^2), 23.3. For the same compound, the “Average transmittance (700 nm to 400 nm) Solution” value in data set [5] is recorded as 87.5%. In addition, in data set [6], the “Average transmittance (700 nm to 400 nm) Transparent cured film” value was 99.3%. Further, the “Transmittance (400 nm) Transparent cured film” value in data set [6] was 92.8%.
For `CCCC1(CCC)c2cc(C(=NOC(C)=O)c3ccccc3C)ccc2-c2ccc([N+](=O)[O-])cc21` [Compound 1], the “solubility (in words)” value in data set [3] is given as “additionally excellent solubility”. In data set [4], the “sensitivity” value is recorded as “additionally high sensitivity to the active energy ray”. Also, the “20-μm pattern line width” value in data set [4] (setting [8]) was found to be 20.7; in data set [4] (setting [9]), 21.6; in data set [4] (setting [10]), 22.6; in data set [4] (setting [11]) it was 23.3; in data set [4] (setting [12]), 23.8; in data set [7] (10 mJ/cm^2), 20.2. Besides, the “20-μm pattern line width” value was 21.2 in data set [7] (20 mJ/cm^2), 22.1 in data set [7] (40 mJ/cm^2), 23.2 in data set [7] (60 mJ/cm^2) and 23.3 in data set [7] (80 mJ/cm^2). In data set [5], the “Average transmittance (700 nm to 400 nm) Solution” value is given as 88.7%. In addition, the “Average transmittance (700 nm to 400 nm) Transparent cured film” value in data set [6] is 99.3%. The “Transmittance (400 nm) Transparent cured film” value in data set [6] is given as 92.0%.
